Experimental findings from patent publication US20130011870A1, “Method For Assaying Diseases Characterized By Dyslipidemia” (priority 2010, published 2013) are described below.

In the assay the test system is serine palmitoyltransferase (SPT) in SPTLC3 overexpressing HEK293 cells. In words: In vitro SPT activity with various acyl-CoA substrates (Example 1, FIG. 3). It counts as biochemical. Conditions: acyl-CoA 50 μM; activity with palmitoyl-CoA defined as 100%. The protocol:
FIG. 3 In vitro SPT activity with various acyl-CoA substrates (C12-CoA, C14-CoA, C16-CoA and C18:1-CoA) in control, SPTLC1, SPTLC2 and SPTLC3 overexpressing HEK293 cells. […] (For comparison the activity with palmitoyl-CoA is defined as 100%.)
All acyl-CoAs were used at the same concentration (50 μM).

Consider `CCCCCCCC/C=C\CCCCCCCC(=O)SCCNC(=O)CCNC(=O)[C@H](O)C(C)(C)COP(=O)(O)OP(=O)(O)OC[C@H]1O[C@@H](n2cnc3c(N)ncnc32)[C@H](O)[C@@H]1OP(=O)(O)O` [oleoyl-CoA], for which the “SPT activity with the acyl-CoA substrate in SPTLC3 overexpressing cells compared with control, SPTLC1 and SPTLC2 cells” value is reported as “comparable for all cell lines”.

On to `CCCCCCCCCCCCCCCCCC(=O)SCCNC(=O)CCNC(=O)[C@H](O)C(C)(C)COP(=O)(O)OP(=O)(O)OC[C@H]1O[C@@H](n2cnc3c(N)ncnc32)[C@H](O)[C@@H]1OP(=O)(O)O` [stearoyl-CoA], for which the “SPT activity with the acyl-CoA substrate in SPTLC3 overexpressing cells compared with control, SPTLC1 and SPTLC2 cells” value is listed as “comparable for all cell lines”.

Regarding `CCCCCCCCCCCC(=O)SCCNC(=O)CCNC(=O)[C@H](O)C(C)(C)COP(=O)(O)OP(=O)(O)OC[C@H]1O[C@@H](n2cnc3c(N)ncnc32)[C@H](O)[C@@H]1OP(=O)(O)O` [lauryl-CoA], the “SPT activity with the acyl-CoA substrate in SPTLC3 overexpressing cells compared with control, SPTLC1 and SPTLC2 cells” value was “significantly higher activity”.
